Measured values from patent US20120295893A1, “COMPOSITIONS AND METHODS OF COUNTERACTING RESIDUAL SEDATIVE EFFECTS OF SLEEP/ HYPNOTIC DRUGS” (COERULEUS LTD., priority 2009, published 2012).
Converted amounts (≈) assume the structure as drawn. “Also recorded” adds a separate entry of the source. Where two headings read alike, the source gives them in different places.

What was measured:
[1] = tested on: sleep/hypnotic effect of zolpidem or brotizolam; test: Clinical study: immediate Word Recall Test (iWRT)
[2] = tested on: sleep/hypnotic effect of zolpidem or brotizolam; test: Clinical study: Visual Analogue Scale (sleepiness/vigilance, ability to focus, effectiveness)
[3] = Gel electrophoresis migration in agarose gel; type: physicochemical; conditions: pH 4.5 compared with pH 5.5 and 7.2; 0.66 mg/ml, 1% gel, positive electrode
Description: The following parameters were applied in order to evaluate migration in agarose gel (1%; 3 mm thick):
Total Width: 15.5 cm; Length: 15 cm; No of Lanes: 4; No of sections: 10; Buffer solution used: TAE (Tris […], Acetic acid, EDTA); Well vol: 10 ul/well; Voltage used: 50V-100V DC; and Run Time: 1 hr.
1. 0.66 mg/ml flumazenil pH 4.5—Positive Electrode 2. 0.66 mg/ml flumazenil pH 5.5—Positive Electrode 3. 0.66 mg/ml flumazenil in tween80 pH 7.2—Positive Electrode

[4] = Clinical study: vital signs and safety assessments
[5] = cited from earlier work
[6] = tested on: sleep/hypnotic effect of zolpidem or brotizolam; test: Clinical study: overall response in performance tasks, flumazenil versus placebo
[7] = Passive transdermal paper feasibility (3M empirical model)
Description: The feasibility of transdermal delivery was evaluated for flumazenil and zolpidem. The target transdermal dose for flumazenil used in this assessment was 0.6 mg/hr.
This study addresses the feasibility of passively delivering a drug from a transdermal patch based on requirements specified for flumazenil and thereby provides evaluation of drug diffusion across the skin at a feasible rate. […] The assessment involves first qualitatively assessing the physicochemical properties and target transdermal dose of the drug by comparing them to the properties of an ideal passive transdermal drug.
This maximum limit is defined empirically by a 3M model, which can be used to estimate the largest flux and minimum patch size of the proposed drug product.
The target transdermal flux is calculated by dividing the target transdermal dose by the patch area. Using Fick's Law of Diffusion, the steady-state transdermal flux (μg/cm^2/hr) of a drug across the stratum corneum, j, is described by Equation 1: […]
where D is the diffusion coefficient of the drug in the stratum corneum (cm^2/hr), 1 is the thickness of the stratum corneum, P is the permeability coefficient (cm/hr), and Δc is the drug's concentration gradient across the stratum corneum (μg/mL), which is commonly approximated in the literature, under infinite sink conditions, by the drug's solubility in octanol (coct).
The target drug flux is estimated by dividing the target daily transdermal dose (mg/day) by the target patch size (cm^2). If the target patch size is not defined, then a value of 40 cm^2 is used. Then, using equation (1), the target permeability coefficient can be estimated by dividing the target drug flux by the drug's solubility in octanol.

[8] = tested on: sleep/hypnotic effect of zolpidem or brotizolam; test: Clinical study: Profile Of Mood States (POMS) Brief form
[9] = tested on: sleep/hypnotic effect of zolpidem or brotizolam; test: Clinical study: digit symbol substitution test (DSST)
[10] = cited from earlier work; remark: listed apart in the source
[11] = high dose FLUMUP 1.6 mg, 10 participants
[12] = N = 20, sublingual 0.4 mg or 1.6 mg, change from post-hypnotic baseline

CCOC(=O)c1ncn2c1CN(C)C(=O)c1cc(F)ccc1-2 [Flumazenil, ethyl 8-fluoro-5,6-dihydro-5-methyl-6-oxo-4H-imidazo[1,5-a] [1,4]benzodiazepine-3-carboxylate]
iWRT, Δ parameter 20 min aft spray ([1]; N = 20, 0.4 or 1.6 mg): 4.2 ± 0.8
iWRT, Δ parameter 60 min aft spray ([1]; N = 20, 0.4 or 1.6 mg): 5.4 ± 1.1
iWRT, % difference Flum vs. P [1, 11]: 92%
iWRT, Δ parameter 20 min aft spray [1, 11]: 5.5 ± 0.9
iWRT, Δ parameter 60 min aft spray [1, 11]: 6.1 ± 1.2
Effectiveness, Δ parameter 20 min aft spray ([2]; N = 20, 0.4 or 1.6 mg): 2.9 ± 0.6
Effectiveness, Δ parameter 60 min aft spray ([2]; N = 20, 0.4 or 1.6 mg): 4.5 ± 0.6
Focus Ability, Δ parameter 20 min aft spray ([2]; N = 20, 0.4 or 1.6 mg): 2.7 ± 0.5
Focus Ability, Δ parameter 60 min aft spray ([2]; N = 20, 0.4 or 1.6 mg): 4.3 ± 0.6
Vigilance, Δ parameter 20 min aft spray ([2]; N = 20, 0.4 or 1.6 mg): 3.0 ± 0.6
Vigilance, Δ parameter 60 min aft spray ([2]; N = 20, 0.4 or 1.6 mg): 4.7 ± 0.6
Effectivenes, % difference Flum vs. P [2, 11]: 61%
Effectivenes, Δ parameter 20 min aft spray [2, 11]: 3.8 ± 0.7
Effectivenes, Δ parameter 60 min aft spray [2, 11]: 5.5 ± 0.7
Focus Ability, % difference Flum vs. P [2, 11]: 59%
Focus Ability, Δ parameter 20 min aft spray [2, 11]: 3.7 ± 0.7
Focus Ability, Δ parameter 60 min aft spray [2, 11]: 5.8 ± 0.8
Vigilance, % difference Flum vs. P [2, 11]: 69%
Vigilance, Δ parameter 20 min aft spray [2, 11]: 3.6 ± 0.8
Vigilance, Δ parameter 60 min aft spray [2, 11]: 5.8 ± 0.8
migration in agarose gel [3]: most efficient
Diastolic BP, Δ parameter 20 min aft spray ([4]; N = 20, 0.4 or 1.6 mg): −0.5 ± 1.5
Diastolic BP, Δ parameter 60 min aft spray ([4]; N = 20, 0.4 or 1.6 mg): −2.3 ± 1.2
Systolic BP, Δ parameter 20 min aft spray ([4]; N = 20, 0.4 or 1.6 mg): −5.5 ± 2.3
Systolic BP, Δ parameter 60 min aft spray ([4]; N = 20, 0.4 or 1.6 mg): −6.1 ± 2.7
Pulse, Δ parameter 20 min aft spray [4, 12]: −2.9 ± 1.3
Pulse, Δ parameter 60 min aft spray [4, 12]: −3.4 ± 1.6
complaints of unusual sensation, pain, nausea, abdominal pain or other side effect ([4]; both doses of flumazenil, n=20): None of the participants complained
Diastolic BP, % difference Flum vs. P [4, 11]: 70%
Diastolic BP, Δ parameter 20 min aft spray [4, 11]: −2.0 ± 1.9
Diastolic BP, Δ parameter 60 min aft spray [4, 11]: −2.6 ± 1.8
Pulse, % difference Flum vs. P [4, 11]: 8%
Pulse, Δ parameter 60 min aft spray [4, 11]: −1.2 ± 2.7
Systolic BP, % difference Flum vs. P [4, 11]: 59%
Systolic BP, Δ parameter 20 min aft spray [4, 11]: −4.7 ± 3.5
Systolic BP, Δ parameter 60 min aft spray [4, 11]: −1.7 ± 4.2
Pulse, Δ parameter 20 min aft spray ([4]; high dose FLUMUP 1.6 mg, 10 participants, doubled hypnotic dose): −0.4 ± 1.9
vital signs (pulse, respiration), temperature and blood pressure ([4]; sublingual 0.4 mg and 1.6 mg, n=20): within normal values
physical, neurological, mouth and buccal, cardiac and lung examination, ECG ([4]; sublingual 0.4 mg and 1.6 mg, with respect to placebo, n=20): not adversely affected
effective plasma level ([5]; for IV 0.2 mg): 5 to 20 ng/mL
time to peak plasma level ([5]; from the oral administration): 20 to 90 min
plasma half life time ([5]; in vivo): 7 to 15 min
protein binding ([5]; in vivo): 40%
volume distribution ([5]; in vivo): 0.63 to 1.6 L/kg
onset of action ([5]; intravenous): few seconds to two minutes
time of peak effect post administration ([5]; intravenous): six to ten minutes
bioavailability ([5]; oral delivery, high hepatic elimination): 16%
plasma level ([5]; oral dose of 200-600 mg): 143 to 439 ng/mL
difference between flumazenil and placebo, low dose ([6]; first 10 subjects, flumazenil 0.4 mg, brotizolam 0.25 mg or zolpidem 10 mg): no significant differences; also recorded: could not be better reversed
response: differences between flumazenil and placebo ([6]; last 10 participants, flumazenil 1.6 mg, doubled hypnotic dose): over 30%
duration of effect following administration ([6]; sublingual spray): at least 60 min
start of effect following administration ([6]; sublingual spray): ≤ 20 min
log P vs. Ideal transdermal drug (1 to 3) [7]: +
Ionization vs. Ideal transdermal drug (Neutral) ([7]; Table 20A): +
Ionization vs. Ideal transdermal drug (Neutral) ([7]; Table 21): +
POMS- fatigue, Δ parameter 20 min aft spray ([8]; N = 20, 0.4 or 1.6 mg): −3.7 ± 0.9
POMS- fatigue, Δ parameter 60 min aft spray ([8]; N = 20, 0.4 or 1.6 mg): −5.5 ± 1.0
POMS-Alertness, Δ parameter 20 min aft spray ([8]; N = 20, 0.4 or 1.6 mg): 3.5 ± 0.9
POMS-Alertness, Δ parameter 60 min aft spray ([8]; N = 20, 0.4 or 1.6 mg): 5.3 ± 1.2
POMS- (first POMS line, r13), % difference Flum vs. P [8, 11]: 72%
POMS- (first POMS line, r13), Δ parameter 20 min aft spray [8, 11]: −5.8 ± 1.6
POMS- (first POMS line, r13), Δ parameter 60 min aft spray [8, 11]: −8.2 ± 1.6
POMS- (second POMS line, r14), % difference Flum vs. P [8, 11]: 93%
POMS- (second POMS line, r14), Δ parameter 20 min aft spray [8, 11]: 4.3 ± 1.5
POMS- (second POMS line, r14), Δ parameter 60 min aft spray [8, 11]: 7.2 ± 2.0
DSST, Δ parameter 20 min aft spray ([9]; N = 20, 0.4 or 1.6 mg): 17.7 ± 2.3
DSST, Δ parameter 60 min aft spray ([9]; N = 20, 0.4 or 1.6 mg): 22.4 ± 3.0
DSST, % difference Flum vs. P [9, 11]: 92%
DSST, Δ parameter 20 min aft spray [9, 11]: 23.2 ± 3.4
DSST, Δ parameter 60 min aft spray [9, 11]: 30.4 ± 3.6
pKa ([10]; SciFinderScholar): 1.14±0.2
Ionization ([10]; Table 20A): Neutral
log P ([10]; Table 20A): 1
Ionization ([10]; Table 21): Neutral
solubility (in words) [10]: sparingly soluble
solubility in Propylene glycol, PEG 300 and PEG 400 [10]: ~23 mM (≈ 6980 µg/mL)
solubility in pure ethanol ([10]; maximum): ~33 mM (≈ 10000 µg/mL)
pKa ([10]; product information): 1.78
